We go through one substance from patent US20240207202A1, “COMBINATION THERAPIES TARGETING MITOCHONDRIAL BIOGENESIS FOR CANCER THERAPY” (The Wistar Institute of Anatomy and Biology, priority 2015, published 2024).

The test system of test [1] is LC3B-II, phospho-S6, phospho-AMPKα. Description: RPPA and immunoblotting of autophagy and metabolic stress markers in WM9 cells. It is filed as cell-based, human. From the text:
The raw data of gene expression microarrays generated from Illumina Chips were normalized, background-corrected and summarized using the R package “lumi” (Du et al., 2008). Probes below background level (detection P-value <0.01) were excluded and differential expression was identified with Bayes-adjusted variance analysis using the Bioconductor Limma package. To reduce false positives, the unexpressed probes were removed. The R package “limma” (Smyth, 2004, 2005) was employed for gene differential expression analysis, followed by multiple test correction by the Benjamini and Hochberg procedure (Benjamini and Hochberg, 1995). […] We also conducted GSEA as previously reported (Subramanian et al., 2005). For GSEA, we analyzed gene sets obtained from the Molecular Signatures Database (broadinstitute.org/gsea/msigdb/). The same differential expression analysis method was applied to RPPA data.
Cells were washed with ice-cold PBS containing 100 μM Na3VO4 and scraped off culture dishes. After centrifugation, cell pellets were lysed in buffer containing 10 mM Tris-HCl, pH 7.8, 150 mM NaCl, 1 mM EDTA, 1% Nonidet P-40, 1 mM Na3VO4 and protease inhibitors (Roche complete protease inhibitor tablets). Lysates were cleared by micro-centrifugation and protein concentrations were determined with Protein Assay Dye Reagent Concentrate (Bio-Rad). […]
Background: Immunoblotting shows a protein as a band on a membrane.

For a further test, the system named is mitochondrial mass. Description: Mitochondrial mass by MitoTracker Red. The conditions noted are these: WM9, 72 h, Gamitrinib 1 μM combined with MAPK pathway inhibitors. It is filed as cell-based, human. How it is done:
(§1) Adherent melanoma cells were harvested with 0.05% Trypsin-EDTA and were washed once with 1×DPBS. Cells were labeled with CellTrace™ Violet according to the manufacturer's protocol and were allowed to adhere to tissue culture plates overnight following the drug treatment. At indicated time points following the drug treatment, floating and adherent cells were pooled, washed with Hank's Buffered Salt Solution (HBSS) and then stained with CellROX Deep Red at 2.5 μM or MitoTracer Red at 0.25 μM for 1 h in a 37° C. humidified incubator supplied with 5% CO2. Cells were then pelleted, washed with DPBS, and stained with PSVue® 643 at 5 μM diluted in TES buffer for 5 min in the dark. Cells were then immediately subjected to FACS analysis using a BD LSR II flow cytometer and at least 5,000 cells per sample were acquired.

The next test deals with reactive oxygen species. In words: ROS by CellROX Deep Red. It is filed as cell-based, human. Conditions: WM9, 72 h, Gamitrinib 1 μM with PLX4720 10 μM and PD0325901 1 μM. The method, then: as §1
Labeling cells with CellROX Deep Red—Following drug treatment, floating and adherent cells were pooled and stained in FACS tubes with CellROX Deep Red at 2.5 μM. Fluorescent dyes were diluted in 10% DMEM/F12 culture medium. Stained cell suspensions were kept in a 37° C. tissue culture incubator for 60 min with brief vortexing every 30 min. Cells were then washed with 1×PBS supplemented with 10% FBS.

Test [2] concerns mitochondrial DNA copy number. In words: Mitochondrial DNA copy number. The conditions noted are these: WM9, Gamitrinib 1 μM combined with PLX4720 and PD0325901 or LGX818 and MEK162. It is filed as cell-based, human. How it is done:
Mitochondria DNA copy number was measured by the ratio of a mitochondrial gene, mtDNA-3, and a nuclear gene, 18S rRNA. The mtDNA-3/18S rRNA ratio was quantified by qRT-PCR on an Applied Biosystems 7500 Fast Real-Time PCR System. The reaction mixtures (25 μL final volume) contained 12.5 μL Fast SYBR Green Master Mix, 500 nM of each primer and 10 ng genomic DNA. The reaction conditions were 95° C. for 20 s, followed by 45 cycles of 95° C. for 3 s and 60° C. for 30 s. The relative mtDNA copy number was analyzed by the 2-ΔΔCt method.

The test system of test [3] is 1205Lu melanoma xenograft. Description: Tumor volume of 1205Lu melanoma xenografts. It is filed as in vivo, mice. Conditions: 1205Lu xenografts; for % T/C (percentages of tumor volumes): Table 7, 17 days, alone or with PLX4720 200 mg/kg diet.
Another test deals with autophagic flux. Description: Autophagic flux in WM9 cells expressing mCherry-eGFP-LC3B. It is filed as cell-based, human. The conditions noted are these: WM9, 72 h, Gamitrinib 1 μM or Spautin-1 10 μM combined with PLX4720 10 μM/PD0325901 1 μM. The method, then: WM9 cells stably expressing pLVO-Puro-mCherry-eGFP-LC3 were analyzed with a BD LSR II flow cytometer. Fluorescence of mCherry and eGFP was recorded to derive the ratio of mCherryheight over eGFP-height. This ratio indicates the autophagic flux.
Briefly, autophagic flux was assessed by FACS analysis of WM9 cells expressing the mCherry-eGFPLC3B construct that were transfected with the indicated siRNAs targeting autophagy and ER stress response and treated for 72 h with DMSO or the combination of PLX4720 at 10 μM and PD0325901 at 1 μM. The data represent the average of 2 biological replicates. Induction of apoptosis and cell death was assessed by PSVue 643 staining in WM9 cells expressing the mCherry-eGFP-LC3B construct transfected with the indicated siRNAs targeting autophagy and ER stress response and treated for 72 h with DMSO or the combination of PLX4720 at 10 μM and PD0325901 at 1 μM. Autophagic flux was assessed by FACS analysis of WM9 cells expressing the mCherry-eGFPLC3B construct treated for 72 h with Gamitrinib at 1 μM or Spautin-1 at 10 μM in combination with PLX4720 at 10 μM/PD0325901 at 1 μM. Cells treated with DMSO were used as the control for setting up the gate. Induction of apoptosis and cell death was assessed by PSVue 643 staining in WM9 cells treated for 72 h with Gamitrinib at 1 μM or Spautin-1 at 10 μM in combination with PLX4720 at 10 μM/PD0325901 at 1 μM. […]

For another test, the system named is M-MITF. In words: M-MITF gene expression by qRT-PCR in WM9 cells. It is filed as cell-based, human. Conditions: WM9, 48 h, Gamitrinib 1 μM added to PLX4720 10 μM and PD0325901 1 μM. The method, then: One μg total mRNA was reverse transcribed using a Maxima First Strand cDNA Synthesis Kit for qRT-PCR (Thermo Fisher). Fast SYBR® Green Master Mix (Life Technologies) was used with cDNA template and primers to evaluate the expression of target genes and GAPDH. Primers used were purchased from Integrated DNA Technologies. Amplifications were performed using an Applied Biosystems® 7500 Real-Time PCR System (Life Technologies). All experiments were performed in triplicate. Expression ratios of controls were normalized to 1. Please see Extended Experimental Procedures for the list of PCR primer sequences.

Regarding Gamitrinib, the “LC3B-II, phospho-S6 and phospho-AMPKα” value in test [1] is “down-regulated LC3B-II and phospho-S6 and up-regulated phospho-AMPKα”. In addition, the mitochondrial mass entry in the test on mitochondrial mass is on record as “decreases”. Further, the “ROS production compared to MAPK pathway inhibitors alone” value in the test with reactive oxygen species is on record as “markedly increased the ROS production”. Also, the “mitochondrial DNA copy number” value in test [2] is recorded as “decreases in mitochondrial DNA copy number”. The tumor growth entry in test [3] (Gamitrinib 15 mg/kg alone) is reported as “significantly impaired tumor growth”. In addition, the “% T/C (percentages of tumor volumes)” value is 124.59% in test [3] (gamitrinib 5 mg/kg QD i.p.) and 57.3% in test [3] (gamitrinib 15 mg/kg QD i.p.). In addition, the autophagic flux result in the test with autophagic flux is “decreased the autophagic flux”. In the test with M-MITF, the “M-MITF expression up-regulated by MAPK pathway inhibitors” value was “further down-regulated”.
